Experimental data reported in publication PMC9506414, “Novel 2,6,9-Trisubstituted Purines as Potent CDK Inhibitors Alleviating Trastuzumab-Resistance of HER2-Positive Breast Cancers” (Pharmaceuticals, 2022).

How the values were obtained:
Experiment in all cases: Kinome-wide inhibition profiling
Type in all cases: biochemical
[1] = molecular target: T1, NDR2 (Homo sapiens, UniProt Q9Y2H1)
T1 construct: purchased Reaction Biology Corp
Experimental: (§1) In vitro CDK12/cyclinK assays for all compounds and in vitro kinome-wide inhibition profiling of 30d at 10 μM were performed by a CRO company (Reaction Biology Corp., San Diego, CA, USA).

[2] = molecular target: T2, CAMK2g (Homo sapiens, UniProt Q13555)
T2 construct: purchased Reaction Biology Corp
Experimental: as §1

[3] = molecular target: T3, TNK1 (Homo sapiens, UniProt Q13470)
T3 construct: purchased Reaction Biology Corp
Experimental: as §1

[4] = molecular target: T4, CDK4/cyclinD1 (Homo sapiens, UniProt P11802)
T4 construct: purchased Reaction Biology Corp
Experimental: as §1

[5] = molecular target: T5, ERK1 (Homo sapiens, UniProt P27361)
T5 construct: purchased Reaction Biology Corp
Experimental: as §1

[6] = molecular target: T6, TRKC (Homo sapiens, UniProt Q16288)
T6 construct: purchased Reaction Biology Corp
Experimental: as §1

[7] = molecular target: T7, DYRK1A (Homo sapiens, UniProt Q13627)
T7 construct: purchased Reaction Biology Corp
Experimental: as §1

[8] = molecular target: T8, VEGFR2 (Homo sapiens, UniProt P35968)
T8 construct: purchased Reaction Biology Corp
Experimental: as §1

[9] = molecular target: T9, FRK (Homo sapiens, UniProt P42685)
T9 construct: purchased Reaction Biology Corp
Experimental: as §1

[10] = molecular target: T10, CAMKK1 (Homo sapiens, UniProt Q8N5S9)
T10 construct: purchased Reaction Biology Corp
Experimental: as §1

[11] = molecular target: T11, NDR1 (Homo sapiens, UniProt Q15208)
T11 construct: purchased Reaction Biology Corp
Experimental: as §1

[12] = molecular target: T12, GRK5 (Homo sapiens, UniProt P34947)
T12 construct: purchased Reaction Biology Corp
Experimental: as §1

[13] = molecular target: T13, ACVR1 (Homo sapiens, UniProt Q04771)
T13 construct: purchased Reaction Biology Corp
Experimental: as §1

[14] = molecular target: T14, IKK-beta (Homo sapiens, UniProt O14920)
T14 construct: purchased Reaction Biology Corp
Experimental: as §1

[15] = molecular target: T15, MAK (Homo sapiens, UniProt P20794)
T15 construct: purchased Reaction Biology Corp
T15 sequence (P20794 whole entry): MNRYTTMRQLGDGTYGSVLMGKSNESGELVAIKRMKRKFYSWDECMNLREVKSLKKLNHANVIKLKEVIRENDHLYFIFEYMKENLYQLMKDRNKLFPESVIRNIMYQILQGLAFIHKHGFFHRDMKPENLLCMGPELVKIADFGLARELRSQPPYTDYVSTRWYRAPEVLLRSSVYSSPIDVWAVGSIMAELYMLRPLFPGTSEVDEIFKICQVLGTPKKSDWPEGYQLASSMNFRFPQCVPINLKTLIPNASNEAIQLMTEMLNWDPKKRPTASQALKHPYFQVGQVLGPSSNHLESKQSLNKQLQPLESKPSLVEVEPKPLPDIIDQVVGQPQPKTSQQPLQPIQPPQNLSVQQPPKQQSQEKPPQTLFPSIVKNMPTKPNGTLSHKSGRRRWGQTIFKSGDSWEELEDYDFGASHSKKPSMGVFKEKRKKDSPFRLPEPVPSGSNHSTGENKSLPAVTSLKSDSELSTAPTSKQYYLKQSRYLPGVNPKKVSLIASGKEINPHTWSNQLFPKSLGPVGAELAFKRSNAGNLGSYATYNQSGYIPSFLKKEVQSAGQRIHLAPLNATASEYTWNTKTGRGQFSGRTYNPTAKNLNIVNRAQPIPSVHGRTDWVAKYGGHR
Experimental: as §1

[16] = molecular target: T16, FGFR1 (Homo sapiens, UniProt P11362)
T16 construct: purchased Reaction Biology Corp
Experimental: as §1

[17] = molecular target: T17, P38-beta (Homo sapiens, UniProt Q15759)
T17 construct: purchased Reaction Biology Corp
Experimental: as §1

[18] = molecular target: T18, GSK3b (Homo sapiens, UniProt P49841)
T18 construct: purchased Reaction Biology Corp
T18 sequence (P49841 whole entry): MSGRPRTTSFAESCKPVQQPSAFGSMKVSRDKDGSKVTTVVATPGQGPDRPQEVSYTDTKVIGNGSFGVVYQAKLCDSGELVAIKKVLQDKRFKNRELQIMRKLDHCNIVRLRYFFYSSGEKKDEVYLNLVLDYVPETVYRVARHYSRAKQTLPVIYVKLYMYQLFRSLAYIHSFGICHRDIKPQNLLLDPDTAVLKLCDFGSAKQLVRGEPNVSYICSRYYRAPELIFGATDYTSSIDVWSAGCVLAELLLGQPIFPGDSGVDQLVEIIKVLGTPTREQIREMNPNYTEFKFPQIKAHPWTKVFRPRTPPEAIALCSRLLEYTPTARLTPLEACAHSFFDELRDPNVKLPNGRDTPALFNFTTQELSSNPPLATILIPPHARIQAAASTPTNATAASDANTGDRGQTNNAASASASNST
Experimental: as §1

[19] = molecular target: T19, IRAK2 (Homo sapiens, UniProt O43187)
T19 construct: purchased Reaction Biology Corp
Experimental: as §1

[20] = molecular target: T20, DYRK1B (Homo sapiens, UniProt Q9Y463)
T20 construct: purchased Reaction Biology Corp
T20 sequence (Q9Y463 whole entry): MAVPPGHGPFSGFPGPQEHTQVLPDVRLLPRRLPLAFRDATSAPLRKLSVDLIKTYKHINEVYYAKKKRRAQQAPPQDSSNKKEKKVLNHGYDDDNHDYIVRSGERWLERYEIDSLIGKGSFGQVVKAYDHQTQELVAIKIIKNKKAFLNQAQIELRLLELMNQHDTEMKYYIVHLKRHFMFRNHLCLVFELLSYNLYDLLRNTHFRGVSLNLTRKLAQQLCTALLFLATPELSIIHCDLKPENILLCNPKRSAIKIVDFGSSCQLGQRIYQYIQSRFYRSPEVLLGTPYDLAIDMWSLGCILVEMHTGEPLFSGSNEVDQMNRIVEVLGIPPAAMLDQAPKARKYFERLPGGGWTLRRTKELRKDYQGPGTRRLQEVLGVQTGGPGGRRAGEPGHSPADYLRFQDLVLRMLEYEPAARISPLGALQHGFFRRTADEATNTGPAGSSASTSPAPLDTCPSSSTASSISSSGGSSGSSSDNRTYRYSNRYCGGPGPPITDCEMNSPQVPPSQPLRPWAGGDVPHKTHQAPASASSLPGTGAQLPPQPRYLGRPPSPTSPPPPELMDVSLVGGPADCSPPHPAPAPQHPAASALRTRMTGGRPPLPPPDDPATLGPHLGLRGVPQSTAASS
Experimental: as §1

[21] = molecular target: T21, CSNK1A1L (Homo sapiens, UniProt Q8N752)
T21 construct: purchased Reaction Biology Corp
Experimental: as §1

[22] = molecular target: T22, TTBK1 (Homo sapiens, UniProt Q5TCY1)
T22 construct: purchased Reaction Biology Corp
Experimental: as §1

[23] = molecular target: T23, BRAF (Homo sapiens, UniProt P15056)
T23 construct: purchased Reaction Biology Corp
Experimental: as §1

[24] = molecular target: T24, INSRR (Homo sapiens, UniProt P14616)
T24 construct: purchased Reaction Biology Corp
Experimental: as §1

[25] = molecular target: T25, VRK1 (Homo sapiens, UniProt Q99986)
T25 construct: purchased Reaction Biology Corp
Experimental: as §1

[26] = molecular target: T26, CAMK4 (Homo sapiens, UniProt Q16566)
T26 construct: purchased Reaction Biology Corp
Experimental: as §1

[27] = molecular target: T27, MEK3 (Homo sapiens, UniProt P46734)
T27 construct: purchased Reaction Biology Corp
Experimental: as §1

[28] = molecular target: T28, GRK6 (Homo sapiens, UniProt P43250)
T28 construct: purchased Reaction Biology Corp
Experimental: as §1

[29] = molecular target: T29, CSNK2A2 (Homo sapiens, UniProt P19784)
T29 construct: purchased Reaction Biology Corp
Experimental: as §1

[30] = molecular target: T30, JNK3 (Homo sapiens, UniProt P53779)
T30 construct: purchased Reaction Biology Corp
T30 sequence (P53779 whole entry): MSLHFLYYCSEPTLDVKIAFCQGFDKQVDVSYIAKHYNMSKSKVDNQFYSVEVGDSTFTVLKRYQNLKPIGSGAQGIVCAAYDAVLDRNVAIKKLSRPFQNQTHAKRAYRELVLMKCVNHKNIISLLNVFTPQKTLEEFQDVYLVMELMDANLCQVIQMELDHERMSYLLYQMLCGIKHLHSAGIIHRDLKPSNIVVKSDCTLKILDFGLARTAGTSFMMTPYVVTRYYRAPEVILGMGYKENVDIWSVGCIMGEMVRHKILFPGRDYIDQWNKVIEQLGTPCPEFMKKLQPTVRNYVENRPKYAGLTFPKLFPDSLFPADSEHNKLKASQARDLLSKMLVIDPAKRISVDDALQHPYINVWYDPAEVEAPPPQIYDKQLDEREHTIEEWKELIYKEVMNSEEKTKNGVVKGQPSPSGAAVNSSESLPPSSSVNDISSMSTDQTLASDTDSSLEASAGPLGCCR
Experimental: as §1

[31] = molecular target: T31, TSSK2 (Homo sapiens, UniProt Q96PF2)
T31 construct: purchased Reaction Biology Corp
Experimental: as §1

[32] = molecular target: T32, EPHA5 (Homo sapiens, UniProt P54756)
T32 construct: purchased Reaction Biology Corp
Experimental: as §1

[33] = molecular target: T33, PLK3 (Homo sapiens, UniProt Q9H4B4)
T33 construct: purchased Reaction Biology Corp
Experimental: as §1

[34] = molecular target: T34, MINK (Homo sapiens, UniProt Q8N4C8)
T34 construct: purchased Reaction Biology Corp
Experimental: as §1

[35] = molecular target: T35, IGF1R (Homo sapiens, UniProt P08069)
T35 construct: purchased Reaction Biology Corp
T35 sequence (P08069 31-1367): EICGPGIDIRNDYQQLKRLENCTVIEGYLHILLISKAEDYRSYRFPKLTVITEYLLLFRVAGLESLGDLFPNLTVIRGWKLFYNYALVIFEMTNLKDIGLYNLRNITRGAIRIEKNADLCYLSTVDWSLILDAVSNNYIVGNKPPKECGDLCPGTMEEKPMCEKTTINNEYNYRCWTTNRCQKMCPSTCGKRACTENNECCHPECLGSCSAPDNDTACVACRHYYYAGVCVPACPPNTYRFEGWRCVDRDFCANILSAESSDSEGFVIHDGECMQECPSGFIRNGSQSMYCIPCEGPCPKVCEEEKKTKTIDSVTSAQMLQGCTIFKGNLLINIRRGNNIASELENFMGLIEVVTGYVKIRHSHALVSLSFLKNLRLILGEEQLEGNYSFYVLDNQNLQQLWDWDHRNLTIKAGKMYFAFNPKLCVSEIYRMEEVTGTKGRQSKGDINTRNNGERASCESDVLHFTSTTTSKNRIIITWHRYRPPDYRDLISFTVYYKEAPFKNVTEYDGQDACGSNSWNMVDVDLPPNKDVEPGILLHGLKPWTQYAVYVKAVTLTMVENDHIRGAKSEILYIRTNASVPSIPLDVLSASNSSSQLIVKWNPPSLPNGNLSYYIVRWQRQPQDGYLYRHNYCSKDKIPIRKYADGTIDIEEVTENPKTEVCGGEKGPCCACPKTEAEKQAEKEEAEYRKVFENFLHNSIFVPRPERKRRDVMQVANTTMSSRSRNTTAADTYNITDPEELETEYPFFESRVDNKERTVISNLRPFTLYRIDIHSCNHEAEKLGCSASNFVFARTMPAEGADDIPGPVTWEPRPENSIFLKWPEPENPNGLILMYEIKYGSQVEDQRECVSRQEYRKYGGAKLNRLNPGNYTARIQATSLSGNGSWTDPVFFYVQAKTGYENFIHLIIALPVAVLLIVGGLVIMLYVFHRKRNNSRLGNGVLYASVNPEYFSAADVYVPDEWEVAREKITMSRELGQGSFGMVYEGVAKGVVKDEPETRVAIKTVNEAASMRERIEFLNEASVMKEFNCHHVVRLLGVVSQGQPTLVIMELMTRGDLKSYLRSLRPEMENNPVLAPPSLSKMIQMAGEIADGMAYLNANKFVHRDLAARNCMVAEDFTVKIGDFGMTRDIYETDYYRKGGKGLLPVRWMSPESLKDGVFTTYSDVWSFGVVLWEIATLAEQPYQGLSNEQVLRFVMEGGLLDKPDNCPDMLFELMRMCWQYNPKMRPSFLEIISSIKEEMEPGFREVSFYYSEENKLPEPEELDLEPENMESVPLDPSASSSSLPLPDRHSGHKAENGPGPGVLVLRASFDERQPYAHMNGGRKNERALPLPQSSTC
Experimental: as §1

[36] = molecular target: T36, DMPK2 (Homo sapiens, UniProt Q6DT37)
T36 construct: purchased Reaction Biology Corp
T36 sequence (Q6DT37 whole entry): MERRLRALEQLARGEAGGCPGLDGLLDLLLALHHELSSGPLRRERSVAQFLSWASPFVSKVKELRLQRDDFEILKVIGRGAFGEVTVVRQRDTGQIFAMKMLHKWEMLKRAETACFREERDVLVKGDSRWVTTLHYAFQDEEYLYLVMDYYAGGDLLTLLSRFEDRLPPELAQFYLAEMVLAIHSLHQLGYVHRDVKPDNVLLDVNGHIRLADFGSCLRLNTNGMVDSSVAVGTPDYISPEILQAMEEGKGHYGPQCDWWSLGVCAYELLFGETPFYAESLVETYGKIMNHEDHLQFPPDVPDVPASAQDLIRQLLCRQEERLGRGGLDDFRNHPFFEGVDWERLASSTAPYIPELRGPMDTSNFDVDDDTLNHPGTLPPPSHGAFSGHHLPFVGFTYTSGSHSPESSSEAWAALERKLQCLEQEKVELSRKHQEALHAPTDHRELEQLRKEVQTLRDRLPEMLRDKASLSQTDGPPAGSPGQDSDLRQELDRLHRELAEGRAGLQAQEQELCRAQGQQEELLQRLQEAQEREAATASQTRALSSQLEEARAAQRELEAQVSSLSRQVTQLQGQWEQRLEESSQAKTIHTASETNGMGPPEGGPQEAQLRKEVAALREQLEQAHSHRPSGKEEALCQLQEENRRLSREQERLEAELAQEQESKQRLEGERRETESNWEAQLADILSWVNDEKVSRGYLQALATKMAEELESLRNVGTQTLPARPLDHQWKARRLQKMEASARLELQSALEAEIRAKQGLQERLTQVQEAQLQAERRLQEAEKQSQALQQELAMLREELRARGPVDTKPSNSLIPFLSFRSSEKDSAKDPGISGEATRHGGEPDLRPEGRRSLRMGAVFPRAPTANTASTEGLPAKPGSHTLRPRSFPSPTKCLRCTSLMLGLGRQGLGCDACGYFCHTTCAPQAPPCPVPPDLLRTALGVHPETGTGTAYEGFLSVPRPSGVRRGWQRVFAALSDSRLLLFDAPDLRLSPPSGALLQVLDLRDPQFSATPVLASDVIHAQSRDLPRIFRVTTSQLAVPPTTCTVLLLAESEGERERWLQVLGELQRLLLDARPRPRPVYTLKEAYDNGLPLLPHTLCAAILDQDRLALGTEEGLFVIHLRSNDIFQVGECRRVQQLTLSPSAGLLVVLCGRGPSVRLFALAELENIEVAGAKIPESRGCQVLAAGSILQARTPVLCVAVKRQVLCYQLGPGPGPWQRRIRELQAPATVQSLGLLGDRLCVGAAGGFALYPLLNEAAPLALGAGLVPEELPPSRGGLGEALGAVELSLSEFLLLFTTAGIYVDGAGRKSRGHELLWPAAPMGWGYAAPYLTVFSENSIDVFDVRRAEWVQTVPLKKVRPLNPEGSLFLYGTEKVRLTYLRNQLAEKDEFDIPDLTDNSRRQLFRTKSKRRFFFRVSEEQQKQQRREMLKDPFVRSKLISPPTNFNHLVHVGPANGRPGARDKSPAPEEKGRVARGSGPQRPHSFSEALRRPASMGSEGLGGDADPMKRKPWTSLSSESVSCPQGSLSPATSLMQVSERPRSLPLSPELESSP
Experimental: as §1

[37] = molecular target: T37, BMPR2 (Homo sapiens, UniProt Q13873)
T37 construct: purchased Reaction Biology Corp
Experimental: as §1

[38] = molecular target: T38, ERBB4 (Homo sapiens, UniProt Q15303)
T38 construct: purchased Reaction Biology Corp
Experimental: as §1

[39] = molecular target: T39, TNIK (Homo sapiens, UniProt Q9UKE5)
T39 construct: purchased Reaction Biology Corp
Experimental: as §1

[40] = molecular target: T40, PIM3 (Homo sapiens, UniProt Q86V86)
T40 construct: purchased Reaction Biology Corp
Experimental: as §1

[41] = molecular target: T41, DAPK3 (Homo sapiens, UniProt O43293)
T41 construct: purchased Reaction Biology Corp
Experimental: as §1

[42] = molecular target: T42, PAK3 (Homo sapiens, UniProt O75914)
T42 construct: purchased Reaction Biology Corp
Experimental: as §1

[43] = molecular target: T43, LYN B (Homo sapiens, UniProt P07948)
T43 construct: purchased Reaction Biology Corp
Experimental: as §1

CCn1cnc2c(NCc3ccc(-c4ccccn4)nc3)nc(-c3ccc(N)nc3)nc21 [Compound 30d, N-([2,2′-Bipyridin]-5-ylmethyl)-2-(6-aminopyridin-3-yl)-9-ethyl-9H-purin-6-amine]
remaining activity at 10 µM [1]: 36.9% | remaining activity at 10 µM [2]: 105% | remaining activity at 10 µM [3]: 91.3% | remaining activity at 10 µM [4]: 33.5% | remaining activity at 10 µM [5]: 9.4% | remaining activity at 10 µM [6]: 54.9% | inhibition at 10 µM [7]: > 95% | remaining activity at 10 µM [7]: 3.9% | remaining activity at 10 µM [8]: 88.6% | remaining activity at 10 µM [9]: 43.5% | remaining activity at 10 µM [10]: 18.7% | remaining activity at 10 µM [11]: 28.3% | remaining activity at 10 µM [12]: 91.5% | remaining activity at 10 µM [13]: 118% | remaining activity at 10 µM [14]: 83.7% | inhibition at 10 µM [15]: > 95% | remaining activity at 10 µM [15]: 3.3% | remaining activity at 10 µM [16]: 28.8% | remaining activity at 10 µM [17]: 64.7% | remaining activity at 10 µM [18]: 5.8% | remaining activity at 10 µM [19]: 97.5% | inhibition at 10 µM [20]: > 95% | remaining activity at 10 µM [20]: 3.2% | remaining activity at 10 µM [21]: 53.1% | remaining activity at 10 µM [22]: 108% | remaining activity at 10 µM [23]: 60.8% | remaining activity at 10 µM [24]: 31.1% | remaining activity at 10 µM [25]: 87.3% | remaining activity at 10 µM [26]: 95.2% | remaining activity at 10 µM [27]: 73.5% | remaining activity at 10 µM [28]: 80.6% | remaining activity at 10 µM [29]: 91.3% | remaining activity at 10 µM [30]: 48.7% | remaining activity at 10 µM [31]: 85.3% | remaining activity at 10 µM [32]: 5.9% | remaining activity at 10 µM [33]: 94.4% | remaining activity at 10 µM [34]: 101% | remaining activity at 10 µM [35]: 58% | remaining activity at 10 µM [36]: 92.4% | remaining activity at 10 µM [37]: 52.4% | remaining activity at 10 µM [38]: 73% | remaining activity at 10 µM [39]: 69% | remaining activity at 10 µM [40]: 86.7% | remaining activity at 10 µM [41]: 80.8% | remaining activity at 10 µM [42]: 29.1% | remaining activity at 10 µM [43]: 54.4%
